From patent US7037673B2, “Dipeptide production method, L-amino acid amide hydrolase used therein, and production method of L-amino acid amide hydrolase” (Ajinomoto Co., Inc., priority 2001, dated 2006)
Residues, ends and D or L forms follow the SMILES beside them.

Tests used:
[1] = tested on: His-Tag L-alanine amide hydrolase; experiment: Study of substrate specificity using His-Tag purified enzyme; assay type: biochemical, Corynebacterium glutamicum strain ATCC 13286; details: pH 9.0, enzyme 0.0045 U/ml, 25° C., 3 hours; for peptide synthesized from L-alanine amide and test amino acid: 100 mM L-alanine amide, 150 mM test amino acid; for peptide produced from test amino acid amide and L-glutamine: 100 mM test amino acid amide, 150 mM L-glutamine
[2] = tested on: L-alanine amide hydrolase; experiment: Production of L-alanyl-L-asparagine and L-alanyl-L-glutamine with purified enzyme; assay type: biochemical, Corynebacterium glutamicum strain ATCC 13286; details: 50 μmol L-alanine amide hydrochloride + 150 μmol L-asparagine or L-glutamine, 0.08 unit enzyme, 1 ml, pH 9.0, 30° C., 10 hours
Source text: Hereinafter, the present invention will be explained in more detail by way of examples. However, the present invention should not be considered to be limited to these examples.
The L-alanine amide hydrolase uniformly purified in Example 2 was allowed to act on L-alanine amide hydrochloride and L-asparagine or L-alanine amide hydrochloride and L-glutamine to produce L-alanyl-L-asparagine or L-alanyl-L-glutamine. In the case of obtaining L-alanyl-L-asparagine, 200 μmol of Tris-HCl buffer (pH 9.0), 50 μmol or L-alanine amide hydrochloride, 150 μmol of L-asparagine and enzyme liquid containing 0.08 unit of L-alanine amide hydrolase were added and mixed to a final volume of 1 ml. In the case of obtaining L-alanyl-L-glutamine, the reactants were mixed under the same conditions as in the case of L-alanyl-L-asparagine with the exception of using 150 μmol of L-glutamine instead of 150 μmol of L-asparagine. Control experiments were established for the case of using one of the substrates or setting the lot in which enzyme was not added. The reaction was carried out at a reaction temperature of 30° C. for 10 hours, and the results of quantifying the target product are shown in Table 3.

[3] = compared with L-glutamine; cited from earlier work
[4] = tested on: L-alanine amide hydrolase; experiment: Measurement of activity of L-alanine amide hydrolase (L-alanyl-L-glutamine formation, HPLC); assay type: biochemical, Corynebacterium glutamicum strain ATCC 13286; details: His-Tag purified enzyme
Procedure: Measurement of L-alanine amide enzyme activity was carried out by incubating a reaction mixture containing 50 mM L-alanine amide, 150 mM L-glutamine, 100 mM Tris-HCl buffer (pH 9.0), 10 mM EDTA and enzyme solution at 30° C. for 60 minutes followed by stopping the reaction by adding aqueous phosphoric acid (pH 1.5) equal to four volumes of the reaction mixture. The amount of L-alanyl-L-glutamine was determined by HPLC. For the unit of enzyme activity, enzyme activity that produces 1 μmol of L-alanyl-L-glutamine in 1 minute under these conditions was defined as 1 unit (U).
The conditions of HPLC used for analysis were as indicated below.
Mobile phase: (aqueous phosphoric acid solution (pH 2.1)), 2.5 mM sodium-1-octanesulfonate/methanol=10/1
Column temperature: 40° C.

SMILES	peptide synthesized from L-alanine amide and test amino acid [1]	further results
C[C@H](N)C(=O)N[C@@H](C)C(=O)O [L-alanyl-L-alanine] (H-Ala-Ala-OH)	10.11 mM	–
C[C@H](N)C(=O)N[C@@H](CCCNC(=N)N)C(=O)O [L-alanyl-L-arginine] (H-Ala-Arg-OH)	27.69 mM	–
C[C@H](N)C(=O)N[C@@H](CC(N)=O)C(=O)O [L-alanyl-L-asparagine] (H-Ala-Asn-OH)	–	Product concentration [2]: 8.4 mM
C[C@H](N)C(=O)N[C@@H](CCC(=O)O)C(=O)O [L-alanyl-L-glutamate] (H-Ala-Glu-OH)	1.20 mM	–
C[C@H](N)C(=O)N[C@@H](CCC(N)=O)C(=O)O [L-alanyl-L-glutamine] (H-Ala-Gln-OH)	–	stability [3]: higher; water-solubility [3]: higher; production yield of Ala-Gln relative to L-alanine amide [4]: 7.2%; Product concentration [2]: 7.7 mM
C[C@H](N)C(=O)N[C@@H](Cc1c[nH]cn1)C(=O)O [L-alanyl-L-histidine] (H-Ala-His-OH)	12.52 mM	–
CC[C@H](C)[C@H](NC(=O)[C@H](C)N)C(=O)O [L-alanyl-L-isoleucine] (H-Ala-Ile-OH)	14.11 mM	–
CC(C)C[C@H](NC(=O)[C@H](C)N)C(=O)O [L-alanyl-L-leucine] (H-Ala-Leu-OH)	9.60 mM	–
C[C@H](N)C(=O)N[C@@H](CCCCN)C(=O)O [L-alanyl-L-lysine] (H-Ala-Lys-OH)	18.83 mM	–
CSCC[C@H](NC(=O)[C@H](C)N)C(=O)O [L-alanyl-L-methionine] (H-Ala-Met-OH)	14.49 mM	–
C[C@H](N)C(=O)N[C@@H](Cc1ccccc1)C(=O)O [L-alanyl-L-phenylalanine]	13.42 mM	–
C[C@H](N)C(=O)N1CCC[C@H]1C(=O)O [L-alanyl-L-proline] (H-Ala-Pro-OH)	0.81 mM	–
C[C@H](N)C(=O)N[C@@H](CO)C(=O)O [L-alanyl-L-serine] (H-Ala-Ser-OH)	24.67 mM	–
C[C@H](N)C(=O)N[C@H](C(=O)O)[C@@H](C)O [L-alanyl-L-threonine] (H-Ala-Thr-OH)	20.76 mM	–
C[C@H](N)C(=O)N[C@@H](Cc1c[nH]c2ccccc12)C(=O)O [L-alanyl-L-tryptophan] (H-Ala-Trp-OH)	10.09 mM	–
C[C@H](N)C(=O)N[C@@H](Cc1ccc(O)cc1)C(=O)O [L-alanyl-L-tyrosine] (H-Ala-Tyr-OH)	1.52 mM	–
CC(C)[C@H](NC(=O)[C@H](C)N)C(=O)O [L-alanyl-L-valine] (H-Ala-Val-OH)	9.72 mM	–
C[C@H](N)C(=O)NCC(=O)O [L-alanyl-glycine] (H-Ala-Gly-OH)	7.54 mM	–
NCC(=O)N[C@@H](CCC(N)=O)C(=O)O [glycyl-L-glutamine] (H-Gly-Gln-OH)	–	peptide produced from test amino acid amide and L-glutamine [1]: 17.7 mM
NC(=O)CC[C@H](NC(=O)[C@@H](N)CC(=O)O)C(=O)O [α-L-aspartyl-glutamine] (H-Asp-Gln-OH)	–	peptide produced from test amino acid amide and L-glutamine [1]: 21.2 mM
